Data set [1] addresses T1, CYP2C19 (Homo sapiens, UniProt P33261).
T1 construct: purchased Cypex Ltd (Bactosomes)
The experiment in a line: CYP450 inhibition, CYP2C19. In kind it is in vitro ADME. The conditions noted are these: for inhibition of CYP2C19: 10 µM, probe substrate S-mephenytoin, replicate measurements.

Data set [2] concerns human plasma proteins. The experiment in a line: Plasma protein binding (RED), human. In kind it is in vitro ADME. The conditions noted are these: average of 20, 4, 0.8 µM. Here is the method: A Rapid Equilibrium Dialysis (RED) Plate (Thermo Scientific, catalog #, PI-90007) was used to determine the percentage of compound binding to plasma proteins. The positive control for this experiment was propranolol-HCl (10 mM in DMSO) and the internal standard was warfarin (2 µM in methanol). 10 mM stocks of compound in DMSO were diluted with DMSO acetonitrile (1:4, v:v) to three different intermediate concentrations: high (2 mM), medium (0.4 mM) and low (0.08 mM). A 10 mM stock of propranolol in DMSO was diluted to 0.4 mM concentration in DMSO:acetonitrile (1:4 v:v). In 16 Eppendorf tubes, the control (10 µL) or each of three compound dilutions (10 µL) were each added to separate aliquots of mouse, rat, dog, and human plasma (990 µL). In the RED plate, potassium phosphate buffer (500 µL, 0.1 M, pH 7.4, 37 °C) was placed in every white well and each plasma/compound mixture was added to each of 3 red wells. […] The compounds and internal standard were detected by selected ion recording (SIR). Using the peak area ratio of compound to warfarin from the SIR spectra, the percentage of free compound [1] and bound compound [2] were calculated using the following equations: (1) % free = (concentration buffer chamber/concentration plasma chamber)*100, and (2) % bound = 100 − % free.

Data set [3] in a line: Dog pharmacokinetics, single PO or IV dose. In kind it is in vivo, male beagle dogs. Conditions: for bioavailability: read-out: Dog F (oral bioavailability). An excerpt:
Studies were undertaken to determine the plasma pharmacokinetics of SJ733 and SJ311. These studies included: (i) single oral gavage (PO) or intravenous (IV) dose administration to female C57BL/6 mice; (ii) single PO or IV dose administration to male Sprague Dawley (SD) rats; (iii) single PO or IV dose administration to male beagle dogs; (iv) toxicokinetic (TK) study following single PO administration to male SD rats. The PO and IV formulation used for mouse studies at SJCRH was 1% hydroxypropyl-beta-cyclodextrin (w/v), 10% ethanol (v/v), 10% propylene glycol (v/v), 40% PEG-400 (v/v) and 39% PBS (pH 7.4) isotonic (v/v). Compounds were dosed orally as suspensions, and intravenously as filtered solutions. Compound concentrations were confirmed post filtration using UV spectroscopy. The IV formulation used for rat studies (Monash University) was the same as that used for mice. For PO dosing to rats (Monash University) at 2 mg/kg, a suspension formulation was used containing 0.5% (w/v) hydroxypropyl methylcellulose, 0.5% (v/v) benzyl alcohol and 0.4% (v/v) Tween 80. The formulation used for rat studies at SRI (PO, high dose) was the same as that used in mouse PK studies. The formulation for the high dose TK study at SRI was 0.5% methylcellulose in sterile water. The formulation used for dog studies was the same as that used in mouse PK studies. The plasma PK of SJ733 and SJ311 following a single PO gavage or IV dose (via saphenous vein) to male beagle dogs was determined at an IV dose of 3 mg/kg and PO doses of 3 and 30 mg/kg (n = 3 for each). Briefly, this PK study was carried out in three sessions with one week washout period in between to allow for complete clearance of compounds. In the first session, 6 male dogs were administered a single 3 mg/kg IV dose of SJ311 or SJ733. In the subsequent second and third sessions, the same 6 male dogs were given a single 3 mg/kg or 30 mg/kg PO dose of SJ311 or SJ733, respectively. Plasma (0 -72 h) and urine (0–48 h) samples were collected for further analysis of SJ311 or SJ733 concentrations. Dog plasma was extracted utilizing protein precipitation with a twofold volume ratio of acetonitrile, while urine samples were extracted utilizing liquid–liquid extraction with ethyl acetate. SJ733, SJ311, and verapamil (IS) were quantitated by LC–MS/MS as described above. Plasma concentration time (Ct) data for SJ733 and SJ311 were grouped by nominal time point, and the mean Ct values were subjected to noncompartmental analysis (NCA) using Phoenix WinNonlin 8.1 (Certara USA, Inc., Princeton, NJ). For all experiments, the area under the Ct and first moment curves (AUC, AUMC) were estimated using the “linear up log down” method. The terminal phase was defined as at least three time points at the end of the Ct profile, and the elimination rate constant (Kel) was estimated using an unweighted log-linear regression of the terminal phase. The terminal elimination half-life (T1/2) was estimated as 0.693/Kel, and the AUC from time 0 to infinity ([…]) was estimated as the AUC to the last time point (AUClast) + Clast (predicted)/Kel with the […] similarly calculated. Additional parameters estimated included observed maximum concentration (Cmax), time of Cmax (Tmax), concentration at the last observed time point (Clast), time of Clast (Tlast), and the apparent oral terminal volume of distribution (V/F). The apparent oral clearance (CL/F), systemic clearance (CL) and volume of distribution at steady state (Vss) were all estimated using standard formulae [19].

The nature of data set [4]: Storage stability of samples at −80 °C. Conditions: stored at − 80 °C for more than 14 days, ± 15% variance. An excerpt:
All plasma samples that were shipped elsewhere from the testing facility were all analyzed within the validated stability time period.

Where [5] appears, read: male, beagle, plasma, po, dosed orally, read-out: Tmax.
[6] abbreviates: male, beagle, plasma, po, summary over the oral doses studied.

Read-outs that look alike come from different tables or passages of the source.

T1 sequence (P33261 whole entry): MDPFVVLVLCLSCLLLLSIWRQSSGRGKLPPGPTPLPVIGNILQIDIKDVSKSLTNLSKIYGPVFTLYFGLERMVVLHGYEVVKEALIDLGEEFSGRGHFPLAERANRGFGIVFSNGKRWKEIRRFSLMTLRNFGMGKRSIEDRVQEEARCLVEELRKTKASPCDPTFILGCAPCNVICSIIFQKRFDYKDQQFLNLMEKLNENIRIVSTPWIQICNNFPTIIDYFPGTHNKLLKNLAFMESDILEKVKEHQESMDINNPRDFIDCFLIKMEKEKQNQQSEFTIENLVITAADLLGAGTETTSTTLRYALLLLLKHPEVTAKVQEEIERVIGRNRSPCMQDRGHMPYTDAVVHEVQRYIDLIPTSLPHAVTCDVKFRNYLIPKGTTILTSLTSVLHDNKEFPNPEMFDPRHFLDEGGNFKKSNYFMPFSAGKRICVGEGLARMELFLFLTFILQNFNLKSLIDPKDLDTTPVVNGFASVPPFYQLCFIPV

Take `N#Cc1cc(NC(=O)C2c3ccccc3C(=O)N(CC(F)(F)F)C2c2cn[nH]c2)ccc1F` (racemic) [(r)-SJ311]: the “inhibition of CYP2C19” value in data set [1] amounted to 12%. Further, the “% bound” value in data set [2] is 95.3 ± 0.6%.
In the case of `N#Cc1cc(NC(=O)C2c3ccccc3C(=O)N(CC(F)(F)F)C2c2cccnc2)ccc1F` (racemic) [(r)-SJ733], the “inhibition of CYP2C19” value in data set [1] is 5, 5%. Moreover, in data set [2], the “% bound” value stood at 94.3 ± 0.6%.
With `N#Cc1cc(NC(=O)[C@H]2c3ccccc3C(=O)N(CC(F)(F)F)[C@@H]2c2cccnc2)ccc1F` (racemic) [SJ733], the “CYP2C19 inhibition, in words” value in data set [1] was “weakly inhibited”. For the same compound, the time to peak (Tmax) in data set [3] (setting [5]) worked out at 1 h. Moreover, the bioavailability in data set [3] (setting [6]) lay within 60 to 100%. For the same compound, in data set [3] (summary over the oral doses studied), the “Dog F (oral bioavailability)” value is on record as 74-115%. The storage stability entry in data set [4] is given as “stable”.
As to `N#Cc1cc(NC(=O)[C@H]2c3ccccc3C(=O)N(CC(F)(F)F)[C@@H]2c2cn[nH]c2)ccc1F` [(+)-SJ311], in data set [3] (single IV 3 mg/kg), the AUCinf was determined as 77.0 ± 12.4 µM·h, the CL is given as 0.085 ± 0.013 L/h/kg, the Dose in urine was 32.3 ± 21.3% and the Half life is 7.8 ± 2.2 h. The same compound came in with a Vss in data set [3] (single IV 3 mg/kg) of 0.96 ± 0.27 L/kg. In addition, in data set [3] (single PO 3 mg/kg), the AUCinf is 56.2 ± 12.1 µM·h, the CL came to 0.121 ± 0.030 L/h/kg, the highest concentration (Cmax) was 4 ± 0.8 µM and the Dose in urine is listed as 34.7 ± 15.9%. Besides, in data set [3] (single PO 3 mg/kg), the F% worked out at 73.0 ± 15.8%, the Half life was determined as 6.1 ± 0.6 h, the Tmax stood at 3.3 ± 1.2 h and the V was determined as 1.1 ± 0.4 L/kg. In data set [3] (single PO 30 mg/kg), this compound showed an AUCinf of 601 ± 137 µM·h, a CL of 0.113 ± 0.025 L/h/kg, a Cmax of 35 ± 5.1 µM and a Dose in urine of 33.4%. In data set [3] (single PO 30 mg/kg), the F% came to 77.9 ± 17.7%, the Half life came out at 6.7 ± 1.4 h, the Tmax turned out to be 3.0 ± 1.7 h and the V stood at 1.1 ± 0.4 L/kg.
In data set [3] (single IV 3 mg/kg), `N#Cc1cc(NC(=O)[C@H]2c3ccccc3C(=O)N(CC(F)(F)F)[C@@H]2c2cccnc2)ccc1F` [(+)-SJ733] yielded an AUCinf of 33.1 ± 10.0 µM·h, a CL of 0.204 ± 0.054 L/h/kg, a Dose in urine of 1.9 ± 0.3% and a Half life of 9.6 ± 4.7 h. In data set [3] (single IV 3 mg/kg), this compound had a Vss of 2.8 ± 1.8 L/kg. In data set [3] (single PO 3 mg/kg), the AUCinf was 40.6 ± 12.9 µM·h, the CL stood at 0.169 ± 0.055 L/h/kg, the Cmax was 3 ± 0.7 µM and the Dose in urine came to 2.8 ± 0.2%. In data set [3] (single PO 3 mg/kg), the F% is 115 ± 29%, the Half life worked out at 11.4 ± 5.0 h, the Tmax stood at 0.83 h and the V turned out to be 2.6 ± 0.8 L/kg. In data set [3] (single PO 30 mg/kg), this compound had an AUCinf of 243 ± 52.9 µM·h, a CL of 0.274 ± 0.067 L/h/kg, a Cmax of 25.6 ± 2.1 µM and a Dose in urine of 3.1 ± 1.9%. In data set [3] (single PO 30 mg/kg), the F% turned out to be 73.7 ± 16.1%, the Half life was found to be 5.3 ± 0.7 h, the Tmax is recorded as 1.67 h and the V is on record as 2.1 ± 0.8 L/kg.
Take `N#Cc1cc(NC(=O)[C@H]2c3ccccc3C(=O)N(CC(F)(F)F)[C@@H]2c2cn[nH]c2)ccc1F` [SJ311]: the “CYP2C19 inhibition, in words” value in data set [1] was “weak inhibitor”. For the same compound, the Tmax in data set [3] (setting [5]) worked out at 3 h. Further, the bioavailability in data set [3] (setting [6]) was 74 to 78%. In addition, the “% dose recovered in dog urine” value in data set [3] (regardless of route, mean) was 32-34%. The storage stability result in data set [4] is “stable”.
